Measured values reported in article PMC6364417, “Kinase inhibitor library screening identifies synergistic drug combinations effective in sensitive and resistant melanoma cells” (Journal of Experimental & Clinical Cancer Research : CR, 2019).
Where two headings read alike, the source gives them in different places.

Legend:
[1] = test system: IGR37-GP cells (Dabrafenib-resistant); experiment: Dose-response curves and IC50, PrestoBlue cell viability, 72 h; details: Homo sapiens, 72 h, read-out: Half-maximal inhibitory concentration (IC50)
A375 cells (parental) [2] = experiment: as above; format: cell-based, human; details: for IC50: read-out: Half-maximal inhibitory concentration value (IC50), Mean
501Mel cells (parental) [3] = experiment: as above; details: Homo sapiens, 72 h, read-out: Half-maximal inhibitory concentration (IC50)
Protocol: (§1) All inhibitors used in this study were purchased from Selleck Chemicals (Houston, USA). They were dissolved in DMSO to a stock concentration of 10 mM according to the manufacturer’s instructions and stored at − 80 °C. […] Cell viability was measured with the PrestoBlue Cell Viability Reagent (ThermoFisher Scientific) on a CLARIOstar Monochromator microplate reader (BMG Labtech). Using the GraphPad Prism v5.04 software, the half-maximal inhibitor concentration values (IC50) were determined from the curve using the nonlinear log (inhibitor) vs response-variable slope (four parameters) equation. […] The IC50’s were determined for 3 biological replicates and are listed with their standard deviations.
(§2) Values represent the mean of at least three biological replicates; one representative curve of at least 3 biological replicates is depicted. _XP: cells resistant to Vemurafenib (red), _GP: cells resistant to Dabrafenib (green).

[4] = test system: 501Mel-XP cells (Vemurafenib-resistant); experiment: as above; details: Homo sapiens, 72 h, read-out: Half-maximal inhibitory concentration (IC50)
[5] = test system: A375-XP cells (Vemurafenib-resistant); experiment: as above; format: cell-based, human; details: n.e. = did not suppress growth below 50% in the tested concentration range; for IC50: read-out: Half-maximal inhibitory concentration value (IC50), Mean
[6] = test system: 501Mel-GP cells (Dabrafenib-resistant); experiment: as above; details: Homo sapiens, 72 h, read-out: Half-maximal inhibitory concentration (IC50)
Protocol: as §1

[7] = test system: IGR37-XP cells (Vemurafenib-resistant); experiment: as above; details: Homo sapiens, 72 h, read-out: Half-maximal inhibitory concentration (IC50)
Protocol: as §1, §2

IGR37 cells (parental) [8] = experiment: as above; details: Homo sapiens, IGR-37, 72 h, read-out: Half-maximal inhibitory concentration (IC50)
[9] = test system: A375-GP cells (Dabrafenib-resistant); experiment: as above; format: cell-based, human; details: n.e. = did not suppress growth below 50% in the tested concentration range; for IC50: read-out: Half-maximal inhibitory concentration value (IC50), Mean
501Mel cells (parental) [10] = experiment: Kinase inhibitor library screening, PrestoBlue cell viability, 1 or 10 μM, 72 h; details: 501Mel Parental, 72 h, in %
Summary of the method: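 PrestoBlue viability readout after 72 h exposure to each inhibitor at 1 or 10 μM, reported relative to untreated cells as % viability. Lines tested: sensitive parental plus derivatives resistant to Vemurafenib (XP) or Dabrafenib (GP), each run at least in duplicate.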

IGR37 cells (parental) [11] = experiment: as above; details: IGR37 Parental, 72 h, in %
[12] = test system: IGR37-XP cells (Vemurafenib-resistant); experiment: as above; details: IGR37 XP, 72 h
[13] = test system: A375-GP cells (Dabrafenib-resistant); experiment: as above; details: A375 GP, 72 h
A375 cells (parental) [14] = experiment: as above; details: A375 Parental, 72 h
[15] = test system: IGR37-GP cells (Dabrafenib-resistant); experiment: as above; details: IGR37 GP, 72 h
[16] = test system: 501Mel-GP cells (Dabrafenib-resistant); experiment: as above; details: 501Mel GP, 72 h, in %
[17] = test system: A375-XP cells (Vemurafenib-resistant); experiment: as above; details: A375 XP, 72 h
[18] = test system: 501Mel-XP cells (Vemurafenib-resistant); experiment: as above; details: 501Mel XP, 72 h, in %
A375 cells = experiment: Synergy determination with the Chou-Talalay method (CompuSyn), cell viability 72 h; format: cell-based, human; details: 72 h cell viability, Chou-Talalay / Synergyfinder
Protocol: The Chou-Talalay method to determine possible synergistic effects of selected kinase inhibitor combinations was used as described in [19]. […] Cells were treated with either single inhibitors or combinations thereof at indicated amounts in technical triplicates. The amounts were pre-determined from each inhibitor’s IC50 value and inhibitors were assayed in a defined dilution series and at constant ratio when combined. […] Combination Index (CI) values showing either synergy (< 1) or antagonism (> 1) were calculated with the CompuSyn software (ComboSyn, Inc).

[19] = Homo sapiens, A-375, n.e. = did not suppress growth below 50% in the tested concentration range
[20] = n.e. = did not suppress growth below 50% in the tested concentration range

## NC1(c2ccc(-c3nc4ccn5c(=O)[nH]nc5c4cc3-c3ccccc3)cc2)CCC1 [MK-2206]
[1]
  IC50: 4.73 µM
A375 cells (parental) [2]; [19]
  IC50: 7.8 µM
501Mel cells (parental) [3]
  IC50: 4.55 µM
[4]
  IC50: 2.23 µM
[5]; Homo sapiens
  IC50: 3.38 µM
[6]
  IC50: 4.36 µM
[7]
  IC50: 5.08 µM
IGR37 cells (parental) [8]
  IC50: 4.75 µM
[9]; Homo sapiens
  IC50: 6.43 µM

## Cc1ccc([N+](=O)[O-])cc1S(=O)(=O)N(C)/N=C/c1cnc2ccc(Br)cn12 [PIK-75, reference compound]
A375 cells (parental) [2]; [20]
  IC50: 0.055 µM
[5]
  IC50: 0.053 µM
501Mel cells (parental) [10]; 1μΜ
  Cell viability in kinase inhibitor library screening, 501Mel Parental, 1μΜ: 0.758
501Mel cells (parental) [10]; 10μΜ
  Cell viability in kinase inhibitor library screening, 501Mel Parental, 10μΜ: 0.0735
IGR37 cells (parental) [11]; 1μΜ
  Cell viability in kinase inhibitor library screening, IGR37 Parental, 1μΜ: 1.2
IGR37 cells (parental) [11]; 10μΜ
  Cell viability in kinase inhibitor library screening, IGR37 Parental, 10μΜ: 0.6
[12]; 10μΜ
  Cell viability in kinase inhibitor library screening, IGR37 XP, 10μΜ: 0.7%
[12]; 1μΜ, in %
  Cell viability in kinase inhibitor library screening, IGR37 XP, 1μΜ: 1.2
[13]; 1μΜ
  Cell viability in kinase inhibitor library screening, A375 GP, 1μΜ: 4.0
[13]; 10μΜ
  Cell viability in kinase inhibitor library screening, A375 GP, 10μΜ: 1.2
A375 cells (parental) [14]; 10μΜ
  Cell viability in kinase inhibitor library screening, A375 Parental, 10μΜ: 1.8
A375 cells (parental) [14]; 1μΜ
  Cell viability in kinase inhibitor library screening, A375 Parental, 1μΜ: 4.1
[15]; 10μΜ
  Cell viability in kinase inhibitor library screening, IGR37 GP, 10μΜ: 1.1%
[15]; 1μΜ, in %
  Cell viability in kinase inhibitor library screening, IGR37 GP, 1μΜ: 1.7
[16]; 1μΜ
  Cell viability in kinase inhibitor library screening, 501Mel GP, 1μΜ: 0.164
[16]; 10μΜ
  Cell viability in kinase inhibitor library screening, 501Mel GP, 10μΜ: 0.3
[17]; 1μΜ
  Cell viability in kinase inhibitor library screening, A375 XP, 1μΜ: 5.1
[17]; 10μΜ
  Cell viability in kinase inhibitor library screening, A375 XP, 10μΜ: 2.3
[18]; 1μΜ
  Cell viability in kinase inhibitor library screening, 501Mel XP, 1μΜ: -0.0746
[18]; 10μΜ
  Cell viability in kinase inhibitor library screening, 501Mel XP, 10μΜ: -0.125
[9]
  IC50: 0.045 µM
A375 cells
  synergistic effects with the BRAF inhibitors Vemurafenib and/or Dabrafenib (in words): synergistic effects only with Dabrafenib

## CNC(=O)c1cc(Oc2ccc(NC(=O)Nc3ccc(Cl)c(C(F)(F)F)c3)cc2)ccn1 [Sorafenib]
[1]
  IC50: 9.52 µM
A375 cells (parental) [2]; [19]
  IC50: 5.11 µM
501Mel cells (parental) [3]
  IC50: 7.04 µM
[4]
  IC50: 5.43 µM
[5]; Homo sapiens
  IC50: 4.54 µM
[6]
  IC50: 6.94 µM
[7]
  IC50: 10 µM
IGR37 cells (parental) [8]
  IC50: 7.31 µM
[9]; Homo sapiens
  IC50: 2.5 µM

## CO[C@H]1C[C@@H]2CC[C@@H](C)[C@@](O)(O2)C(=O)C(=O)N2CCCC[C@H]2C(=O)O[C@H]([C@H](C)C[C@@H]2CC[C@@H](OC(=O)C(C)(CO)CO)[C@H](OC)C2)CC(=O)[C@H](C)/C=C(\C)[C@@H](O)[C@@H](OC)C(=O)[C@H](C)C[C@H](C)/C=C/C=C/C=C/1C [Temsirolimus]
[1]
  IC50: 9.45 µM
A375 cells (parental) [2]; [20]
  Half-maximal inhibitory concentration value (IC50), Mean: n.e.
[5]
  Half-maximal inhibitory concentration value (IC50), Mean: n.e.
[7]
  IC50: 6.93 µM
[9]
  Half-maximal inhibitory concentration value (IC50), Mean: n.e.

## O=C(O)c1ccc2c(c1)nc(Nc1cccc(Cl)c1)c1ccncc12 [cx-4945]
[1]
  IC50: 9.09 µM
A375 cells (parental) [2]; [19]
  IC50: 5.62 µM
501Mel cells (parental) [3]
  IC50: 7.17 µM
[4]
  IC50: 4.65 µM
[5]; Homo sapiens
  IC50: 5.21 µM
[6]
  IC50: 4.94 µM
[7]
  IC50: 6.1 µM
IGR37 cells (parental) [8]
  IC50: 6.66 µM
[9]; Homo sapiens
  IC50: 5.34 µM
